≈ marks a conversion by molar mass, not a printed value.
Experiments:
[1] = system: S. aureus AR222; design: key to Antibiotic susceptibility (R/S/I): R: resistance; S: sensitive; I: intermediate; conditions: S. aureus AR222 (CDC strain), cited from earlier work; for Antibiotic susceptibility (R/S/I): Table 2
[2] = system: S. aureus ATCC 25923; design: key: R: resistance; S: sensitive; I: intermediate; conditions: Table 2; cited from earlier work
[3] = system: S. aureus AR215; design: key to Antibiotic susceptibility (R/S/I): R: resistance; S: sensitive; I: intermediate; conditions: S. aureus AR215 (CDC strain), cited from earlier work; for Antibiotic susceptibility (R/S/I): Table 2
[4] = system: S. aureus AR217; design: key to Antibiotic susceptibility (R/S/I): R: resistance; S: sensitive; I: intermediate; conditions: S. aureus AR217 (CDC strain), cited from earlier work; for Antibiotic susceptibility (R/S/I): Table 2
[5] = system: S. aureus ATCC25923; assay: S. aureus MIC80 determination, broth microdilution (CLSI) in CAMHB; format: cell-based; conditions: Staphylococcus aureus, ATCC25923; Table 1; S. aureus ATCC 25923; growth inhibition ≥80% vs vehicle, 16-24 h; read-out: ATCC 25923 MIC80
Description: S. Aureus MIC80 determinations in S. aureus ATCC25923 or in multidrug-resistant strains AR215, AR217 and AR255. MIC80's were determined by the broth microdilution method recommended by the Clinical and Laboratory Standards Institute (CLSI) in Cation-adjusted Mueller-Hinton broth (CAMHB). (Cao et al., 2018). In the preliminary screening, three compound concentrations were used: 5.8, 20.4, and 71.4 μM; for quantitative MIC80 measurements, a 1.5-fold dilution series of the compounds was prepared in CAMHB. Overnight bacterial culture was added to the diluted compounds in a 96-well plate after adjusting the bacterial concentration to achieve a 5×10^5 CFU/mL final concentration. After 16-24 h incubation at 35±2° C., the plates were read at 600 nm in a microplate reader. The MIC80 was defined as the concentration of an antibacterial agent that inhibited bacteria growth ≥80% compared to vehicle-treated control cultures. All values were determined at least twice independently, and the average number is reported.

MIC80 [5] [µM] | Molecule | further results
 | CCCCCCCCCC(=O)N[C@@H](Cc1c[nH]c2ccccc12)C(=O)N[C@H](CC(N)=O)C(=O)N[C@@H](CC(=O)O)C(=O)N[C@@H]1C(=O)NCC(=O)N[C@@H](CCCN)C(=O)N[C@@H](CC(=O)O)C(=O)N[C@H](C)C(=O)N[C@@H](CC(=O)O)C(=O)NCC(=O)N[C@H](CO)C(=O)N[C@@H]([C@H](C)CC(=O)O)C(=O)N[C@@H](CC(=O)c2ccccc2N)C(=O)O[C@@H]1C [DAP, Daptomycin] | Antibiotic susceptibility (R/S/I) [1]: S; Antibiotic susceptibility (R/S/I) [2]: S
 | CC[C@H]1OC(=O)[C@H](C)[C@@H](O[C@H]2C[C@@](C)(OC)[C@@H](O)[C@H](C)O2)[C@H](C)[C@@H](O[C@@H]2O[C@H](C)C[C@H](N(C)C)[C@H]2O)[C@](C)(O)C[C@@H](C)C(=O)[C@H](C)[C@@H](O)[C@]1(C)O [ERY, Erythromycin] | Antibiotic susceptibility (R/S/I) [1]: S; Resistance of the strain to the antibiotic [3]: resistant; Antibiotic susceptibility (R/S/I) [3]: R; Antibiotic susceptibility (R/S/I) [4]: S; Antibiotic susceptibility (R/S/I) [2]: S
> 100 | Cc1cc(Cl)cc2sc(N3CCC(O)CC3)nc12 [Example 32, 1-(6-chloro-4-methylbenzo[d]thiazol-2-yl)piperidin-4-ol] | 
66.7 (≈ 18.8 µg/mL) | Cc1cc(Cl)cc2sc(N3CCC(N)CC3)nc12 [Example 33, 1-(6-chloro-4-methyl-1,3-benzothiazol-2-yl)piperidin-4-amine] | 
44.4 (≈ 13.1 µg/mL) | Cc1cc(Cl)cc2sc(N3CCC(CN)CC3)nc12 [Example 34] | 
66.7 (≈ 23.1 µg/mL) | Cc1cc(Cl)cc2sc(N3CCCC(Cn4ccnc4)C3)nc12 (centres unmarked) [Example 35, 6-chloro-2-{3-[(1H-imidazol-1-yl)methyl]piperidin-1-yl}-4-methyl-1,3-benzothiazole] | 
> 100 | Cc1cc(Cl)cc2sc(N(CCCn3ccnc3)C(=O)CN)nc12 [Example 36, 2-amino-N-(6-chloro-4-methyl-1,3-benzothiazol-2-yl)-N-[3-(1H-imidazol-1-yl)propyl]acetamide] | 
29.6 (≈ 10.8 µg/mL) | Cc1cc(Cl)cc2sc(N(CC3CCNC3)C(=O)C3CCC3)nc12 (centres unmarked) [Example 40, N-(6-chloro-4-methyl-1,3-benzothiazol-2-yl)-N-[(pyrrolidin-3-yl)methyl]cyclobutanecarboxamide] | 
44.4 (≈ 15.5 µg/mL) | Cc1cc(Cl)cc2sc(N(CC3CCNC3)C(=O)C3CC3)nc12 (centres unmarked) [Example 41, N-(6-chloro-4-methylbenzo[d]thiazol-2-yl)-N-(pyrrolidin-3-ylmethyl)cyclopropanecarboxamide] | 
66.7 (≈ 24.3 µg/mL) | Cc1cc(Cl)cc2sc(N(CC3CCCNC3)C(=O)C3CC3)nc12 (centres unmarked) [Example 42, N-(6-chloro-4-methyl-1,3-benzothiazol-2-yl)-N-[(piperidin-3-yl)methyl]cyclopropanecarboxamide] | 
100 (≈ 37.8 µg/mL) | Cc1cc(Cl)cc2sc(N(CCC3CCNCC3)C(=O)C3CC3)nc12 [Example 43, N-(6-chloro-4-methyl-1,3-benzothiazol-2-yl)-N-[2-(piperidin-4-yl)ethyl]cyclopropanecarboxamide] | 
> 100 | Cc1cc(Cl)cc2sc(N(CCCn3cccc3)C(=O)c3ccco3)nc12 [Example 44, N-(6-chloro-4-methyl-1,3-benzothiazol-2-yl)-N-[3-(1H-pyrrol-1-yl)propyl]furan-2-carboxamide] | 
19.8 (≈ 7.48 µg/mL) | Cc1cc(Cl)cc2sc(N(C[C@H]3CC[C@H](N)CC3)C(=O)C3CC3)nc12 [Example 45, N-(6-chloro-4-methyl-1,3-benzothiazol-2-yl)-N-{[(1r,4r)-4-aminocyclohexyl]methyl}cyclopropanecarboxamide] | 
> 100 | NCc1cccc2sc(N(CCCn3ccnc3)C(=O)c3ccco3)nc12 [Example 46, N-[4-(aminomethyl)-1,3-benzothiazol-2-yl]-N-[3-(1H-imidazol-1-yl)propyl]furan-2-carboxamide] | 
> 100 | NCc1cccc2sc(N(CCCn3ccnc3)C(=O)C3CCC3)nc12 [Example 47, N-[4-(aminomethyl)-1,3-benzothiazol-2-yl]-N-[3-(1H-imidazol-1-yl)propyl]cyclobutanecarboxamide] | 
> 100 | NCc1cccc2sc(N(CCCn3ccnc3)C(=O)C3CC3)nc12 [Example 48, N-[4-(aminomethyl)-1,3-benzothiazol-2-yl]-N-[3-(1H-imidazol-1-yl)propyl]cyclopropanecarboxamide] | 
> 100 | NCc1ccc2nc(N(CCCn3ccnc3)C(=O)c3ccco3)sc2c1 [Example 49, N-[6-(aminomethyl)-1,3-benzothiazol-2-yl]-N-[3-(1H-imidazol-1-yl)propyl]furan-2-carboxamide] | 

MIC80 [5] [µM] | Molecule | further results
> 100 | NCc1ccc2nc(N(CCCn3ccnc3)C(=O)C3CCC3)sc2c1 [Example 50, N-[6-(aminomethyl)-1,3-benzothiazol-2-yl]-N-[3-(1H-imidazol-1-yl)propyl]cyclobutanecarboxamide] | 
> 100 | NCc1ccc2nc(N(CCCn3ccnc3)C(=O)C3CC3)sc2c1 [Example 51] | 
> 100 | O=C(c1ccco1)N(CCCn1ccnc1)c1nc2ccc(Cl)nc2s1 [Example 52, N-{5-chloro-[1,3]thiazolo[5,4-b]pyridin-2-yl}-N-[3-(1H-imidazol-1-yl)propyl]furan-2-carboxamide] | 
> 100 | O=C(C1CC1)N(CCCn1ccnc1)c1nc2ccc(Cl)nc2s1 [Example 53, N-{5-chloro-[1,3]thiazolo[5,4-b]pyridin-2-yl}-N-[3-(1H-imidazol-1-yl)propyl]cyclopropanecarboxamide] | 
> 100 | Cc1nc(Cl)cc2sc(N(CCCn3ccnc3)C(=O)c3ccco3)nc12 [Example 54, N-{6-chloro-4-methyl-[1,3]thiazolo[4,5-c]pyridin-2-yl}-N-[3-(1H-imidazol-1-yl)propyl]furan-2-carboxamide] | 
100 (≈ 37.6 µg/mL) | Cc1nc(Cl)cc2sc(N(CCCn3ccnc3)C(=O)C3CC3)nc12 [Example 55, N-{6-chloro-4-methyl-[1,3]thiazolo[4,5-c]pyridin-2-yl}-N-[3-(1H-imidazol-1-yl)propyl]cyclopropanecarboxamide] | 
> 100 | Cc1cc(Cl)cc2sc(N(CC3CCN(C(=O)OC(C)(C)C)CC3)C(=O)C3CCC3)nc12 [Example 56] | 
> 100 | Cc1cc(Cl)cc2sc(N3CCC(CNC(=O)OC(C)(C)C)CC3)nc12 [Example 57] | 
> 100 | Cc1cc(Cl)cc2sc(N3CCC(NC(=O)OC(C)(C)C)CC3)nc12 [Example 58] | 
> 100 | Cc1cc(Cl)cc2sc(N3CCN(C(=O)OC(C)(C)C)CC3)nc12 [Example 59] | 
> 100 | Cc1cc(Cl)cc2sc(N(CCCn3ccnc3)C(=O)C(C)N)nc12 (centres unmarked) [Example 60] | 
> 100 | Cc1cc(Cl)cc2sc(NC(=O)C3CC3)nc12 [Example 61] | 
> 100 | Cc1cc(Cl)cc2sc(NC(=O)c3ccco3)nc12 [Example 62] | 
 | CO[C@@]1(NC(=O)Cc2cccs2)C(=O)N2C(C(=O)O)=C(COC(N)=O)CS[C@@H]21 [FOX, Cefoxitin] | Antibiotic susceptibility (R/S/I) [1]: S; Resistance of the strain to the antibiotic [3]: resistant; Antibiotic susceptibility (R/S/I) [3]: R; Resistance of the strain to the antibiotic [4]: resistant; Antibiotic susceptibility (R/S/I) [4]: R
 | CC(=O)NC[C@H]1CN(c2ccc(N3CCOCC3)c(F)c2)C(=O)O1 [LZD, Linezolid] | Antibiotic susceptibility (R/S/I) [1]: S; Antibiotic susceptibility (R/S/I) [3]: S; Antibiotic susceptibility (R/S/I) [4]: S; Antibiotic susceptibility (R/S/I) [2]: S
 | Cc1onc(-c2ccccc2)c1C(=O)N[C@@H]1C(=O)N2[C@@H]1SC(C)(C)[C@@H]2C(=O)O [OXA, Oxacillin] | Antibiotic susceptibility (R/S/I) [1]: S; Resistance of the strain to the antibiotic [3]: resistant; Antibiotic susceptibility (R/S/I) [3]: R; Resistance of the strain to the antibiotic [4]: resistant; Antibiotic susceptibility (R/S/I) [4]: R; Antibiotic susceptibility (R/S/I) [2]: S
 | Penicillin | Resistance of the strain to the antibiotic [1]: resistant; Antibiotic susceptibility (R/S/I) [1]: R; Resistance of the strain to the antibiotic [3]: resistant; Antibiotic susceptibility (R/S/I) [3]: R; Resistance of the strain to the antibiotic [4]: resistant; Antibiotic susceptibility (R/S/I) [4]: R

Molecule | MIC80 [5] [µM] | further results
Cc1cc(Cl)cc2sc(N(CC3CCNCC3)C(=O)C3CCC3)nc12 [Example 37, N-(6-chloro-4-methylbenzo[d]thiazol-2-yl)-N-(piperidin-4-ylmethyl)cyclobutanecarboxamide] | 19.8 (≈ 7.48 µg/mL) | 
Cc1cc(Cl)cc2sc(N(CC3CCN(C)CC3)C(=O)C3CCC3)nc12 [Example 38, N-(6-chloro-4-methyl-1,3-benzothiazol-2-yl)-N-[(1-methylpiperidin-4-yl)methyl]cyclobutanecarboxamide] | > 100 | 
Cc1cc(Cl)cc2sc(N(CC3CCNCC3)C(=O)C3CC3)nc12 [Example 39] | 19.8 (≈ 7.21 µg/mL) | 

From patent US12570647B2 (Saint Louis University, priority 2021, dated 2026)
